Counter-ions that a name gives are not always drawn.
Tested on: mice
Assay: Acute Oral LD50 mice (Table I)
Format: in vivo
Description: The low toxicity of these compounds makes them especially attractive for use where contact with skin surfaces or possible ingestion renders the use of irritating or toxic materials inadvisable.
______________________________________

Cc1ccc(C(C)(C)C)cc1CCCC(CCCc1cc(C(C)(C)C)ccc1C)NCCCNCCCN [1-[1,7-di-(2-methyl-5-t-butylphenyl)-hydrochloride]
Acute Oral LD50 mice: 1650 mg/kg
